Test results taken from US7981899B2, “Use of compatible solutes for inhibiting the release of ceramides” (Merck Patent GmbH, priority 2002, dated 2011).

How the values were obtained:
[1] = test system: normal human keratinocytes; assay: Release of second messenger in UV-A-irradiated keratinocytes (Example A); type: cell-based; conditions: 2 mM for 24 hours
Method: Normal human keratinocytes which are left untreated or have been treated with a 2 mM solution of RONACARE™ ectoin for 24 hours are subjected to a UV-A radiation dose of 30 J/cm^2 (wavelength of the UV-A radiation: 340-400 nm). […] The cells are harvested 1 hour after irradiation (=maximum UV-A-induced second messenger formation). The release of the second messenger was determined.

[2] = test system: normal human keratinocytes; assay: Inhibition of UV-A-induced ceramide formation, quantitative HPTLC (Example B1); type: cell-based; conditions: 1 mM pre-incubation for 24 hours, UVA 30 J/cm^2, 1 hour after irradiation, FIG. 1
Method: The concentration of a second messenger (ceramide) in UVA-irradiated normal human keratinocytes which have either been pretreated with 1 mM RONACARE™ ectoin or are untreated compared with unirradiated keratinocytes is measured using a quantitative HPTLC method. (A) Un-pretreated control, (B) pre-incubated only with the cell medium for 24 hours, (C) pre-incubated with 1 mM RONACARE™ ectoin for 24 hours. The cells pre-treated in this way are irradiated with a single dose of UVA of 30 J/cm^2 (radiation source: Sellamed 24000). The cells are “harvested” 1 hour after irradiation, a lipid extraction is carried out, and the concentration of the second messenger is determined by quantitative HPTLC. Methodological details are given in Grether-Beck Set al., EMBO J 19: 5793-5800, 2000. […] The data are shown as histograms of ectoin (mM) against ceramide (ng).

[3] = test system: transcription factor AP-2; assay: Inhibition of UV-A-induced AP-2 activation, gel electrophoresis mobility shift assay (Example B2); type: cell-based; conditions: human keratinocytes, 1 mM pre-incubation for 24 hours, UV-A 30 J/cm^2, FIG. 2
Method: The determination of the activation of transcription factor AP-2 is carried out with the aid of gel electrophoresis mobility shift assays (GEMSA). To this end, a nucleus extract (according to J.D. Dignam, P.L.Martin, B.S. Skastry, R.G.G. Roeder, Methods Enzymol 101 (1983) 582-598) of human keratinocytes which had previously been irradiated for 1 hour with 30 J/cm^2 of UV-A light is incubated in comparison with an unirradiated control with the consensus oligonucleotide sequence of ICAM-1 promoter (in accordance with G.G. Stade, G. Messer, G. Riethmüller, J.P. Johannson; Immunobiology 182 (1990) 79-87). The amount of bound AP-2 is subsequently determined by means of GEMSA. (A) Un-pretreated, unirradiated control, (B) pre-incubated with 1 mM RONACARE™ ectoin for 24 hours and irradiated with a single dose of 30 J/cm^2, or (C) pre-incubated only with the cell medium for 24 hours and irradiated with 30 J/cm^2. The UVA irradiation results in activation of transcription factor AP-2 after UVA exposure.

ICAM-1 = assay: Inhibition of UV-A-induced ICAM-1 expression, differential RT-PCR (Example B3); type: cell-based, human; conditions: keratinocytes, 1 mM pre-incubation for 24 hours, UVA 30 J/cm^2, relative to β-actin, all points in time, FIG. 3
Method: The expression of ICAM-1 is measured using differential reverse transcriptase PCR (RT -PCR) and the kit from Applied Biosystem. In order to take into account the normal variations in gene expression of skin cells, the ICAM-1 expression is compared with the housekeeping gene β-actin formed constitutively. Semiquantitative analysis of the RT-PCR is carried out by ion exchange chromatography using a UV spectrophotometer (A260). (A) Un-pretreated, irradiated control, (B) pre-incubated with 1 mM RONACARE™ ectoin for 24 hours and irradiated with a single dose of 30 J/cm^2, or (C) pre-incubated with 1 mM ectoin for 24 hours, unirradiated. The UVA radiation induces an increase in ICAM-1 expression.

dermal human fibroblasts = assay: UVA radiation-induced formation of mitochondrial DNA mutations (common deletion), PCR (Example B4); type: cell-based; conditions: 1 mM pretreatment, 8 J/cm^2 UVA three times daily, four successive days, three weeks, FIG. 4
Excerpt: Dermal human fibroblasts are cultivated in Eagle minimal medium. The cells are irradiated three times daily with 8 J/cm^2 of UVA on four successive days over a total of three weeks. The mt-DNA is then extracted and amplified using PCR. Further details on the method are described in detail in M. Berneburg, S. Grether-Beck, V. Kürten, Th. Ruzicka, K. Briviba, H. Sies, J. Krutmann, J Biol Chem 274 (1999) 15345-15349 and M. Berneburg, N. Gattermann, H. Stege, M. Grewe, K. Vogelsang, Th. Ruzicka, J. Krutmann, Photobiol. 66 (1997) 271-275.

CC1=N[C@H](C(=O)O)CCN1 [RONACARE™ ectoin, (S)-1,4,5,6-tetrahydro-2-methyl-4-pyrimidinecarboxylic acid]
UV-A-induced release of the second messenger ([1]; UV-A 30 J/cm^2): inhibits the UV-A-induced release of the second messenger
Increase in second messenger ([1]; UV-A 30 J/cm^2 (340-400 nm), harvested 1 hour after irradiation): 5.65 ng
ceramide formation induced by UVA radiation [2]: completely suppresses ceramide formation
activation of transcription factor AP-2 after UVA exposure [3]: suppressed virtually completely
ICAM-1 induction induced by UVA radiation (ICAM-1): virtually completely eliminate ICAM-1 induction
formation of mt-DNA mutations (dermal human fibroblasts): prevented the formation of mt-DNA mutations
